From ChEMBL document CHEMBL4007415, “Thieno[3,2-b]pyrrole-5-carboxamides as New Reversible Inhibitors of Histone Lysine Demethylase KDM1A/LSD1. Part 1: High-Throughput Screening and Preliminary Exploration” (J Med Chem, 2017)
The source made the active and inactive calls. No cut-off for these calls is given here.

How the values were obtained:
LSD1/CoREST complex = LSD1/CoREST complex (Homo sapiens, UniProt O60341)
Description: Inhibition of recombinant human KDM1A/CoREST complex expressed in Escherichia coli using biotinylated H3K4me1 peptide as substrate preincubated for 20 mins measured after 1 hr by TR-FRET assay

[1] = target: T1, Amine oxidase [flavin-containing] A (Homo sapiens, UniProt P21397)
T1 sequence (P21397 whole entry): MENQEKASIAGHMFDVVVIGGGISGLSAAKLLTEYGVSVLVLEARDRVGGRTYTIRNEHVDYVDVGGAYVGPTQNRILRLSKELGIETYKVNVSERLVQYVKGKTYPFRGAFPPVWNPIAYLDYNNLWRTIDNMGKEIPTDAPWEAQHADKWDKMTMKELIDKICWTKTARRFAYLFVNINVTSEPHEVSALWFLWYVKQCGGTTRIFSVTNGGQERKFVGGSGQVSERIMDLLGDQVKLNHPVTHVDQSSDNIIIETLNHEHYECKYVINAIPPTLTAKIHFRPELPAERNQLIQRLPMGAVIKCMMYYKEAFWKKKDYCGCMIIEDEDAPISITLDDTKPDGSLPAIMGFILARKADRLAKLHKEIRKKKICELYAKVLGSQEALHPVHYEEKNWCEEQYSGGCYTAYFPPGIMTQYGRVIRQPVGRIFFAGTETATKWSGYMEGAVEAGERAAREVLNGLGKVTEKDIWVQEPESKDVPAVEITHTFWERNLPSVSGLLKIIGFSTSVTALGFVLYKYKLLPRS
Description: Inhibition of recombinant human MAOA incubated for 15 mins measured after 30 mins by luminescence-Glo assay

[2] = target: T2, Amine oxidase [flavin-containing] B (Homo sapiens, UniProt P27338)
T2 sequence (P27338 whole entry): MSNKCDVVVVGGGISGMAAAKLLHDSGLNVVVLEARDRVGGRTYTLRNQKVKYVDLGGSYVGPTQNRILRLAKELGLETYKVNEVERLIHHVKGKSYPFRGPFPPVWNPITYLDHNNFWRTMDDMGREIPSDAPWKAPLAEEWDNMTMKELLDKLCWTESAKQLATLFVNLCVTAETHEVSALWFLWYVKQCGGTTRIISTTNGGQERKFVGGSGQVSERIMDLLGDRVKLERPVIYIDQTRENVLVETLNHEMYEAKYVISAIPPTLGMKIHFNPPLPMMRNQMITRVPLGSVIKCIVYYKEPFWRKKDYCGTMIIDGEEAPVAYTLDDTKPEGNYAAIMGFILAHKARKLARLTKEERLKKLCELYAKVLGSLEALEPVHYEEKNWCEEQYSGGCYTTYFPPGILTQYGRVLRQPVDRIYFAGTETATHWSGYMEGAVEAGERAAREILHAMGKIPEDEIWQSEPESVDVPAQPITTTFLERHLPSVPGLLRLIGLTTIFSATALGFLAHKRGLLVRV
Description: Inhibition of recombinant human MAOB incubated for 15 mins measured after 30 mins by luminescence-Glo assay

[3] = target: T3, Lysine-specific histone demethylase 2 (Homo sapiens, UniProt Q8NB78)
T3 sequence (Q8NB78 whole entry): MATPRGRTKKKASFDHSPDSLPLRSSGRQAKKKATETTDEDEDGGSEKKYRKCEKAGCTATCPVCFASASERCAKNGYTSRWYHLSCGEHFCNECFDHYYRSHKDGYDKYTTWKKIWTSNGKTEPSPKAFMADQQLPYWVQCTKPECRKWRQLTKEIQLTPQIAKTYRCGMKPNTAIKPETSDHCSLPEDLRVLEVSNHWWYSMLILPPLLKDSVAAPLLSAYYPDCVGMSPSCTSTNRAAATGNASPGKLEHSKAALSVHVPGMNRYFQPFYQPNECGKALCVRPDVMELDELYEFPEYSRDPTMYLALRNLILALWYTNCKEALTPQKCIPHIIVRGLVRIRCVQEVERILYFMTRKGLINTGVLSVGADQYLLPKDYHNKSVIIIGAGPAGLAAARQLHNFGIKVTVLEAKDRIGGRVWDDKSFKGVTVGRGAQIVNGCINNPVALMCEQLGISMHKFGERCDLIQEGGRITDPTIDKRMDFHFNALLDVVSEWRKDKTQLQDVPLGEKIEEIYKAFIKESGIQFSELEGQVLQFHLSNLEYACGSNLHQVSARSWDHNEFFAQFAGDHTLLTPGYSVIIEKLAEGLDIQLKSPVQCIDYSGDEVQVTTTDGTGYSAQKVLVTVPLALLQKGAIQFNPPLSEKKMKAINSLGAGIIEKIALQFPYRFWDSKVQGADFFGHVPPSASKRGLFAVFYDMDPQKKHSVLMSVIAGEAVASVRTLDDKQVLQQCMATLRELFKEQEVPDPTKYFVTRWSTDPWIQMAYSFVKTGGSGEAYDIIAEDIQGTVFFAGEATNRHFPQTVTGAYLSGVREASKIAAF
Description: Inhibition of KDM1B (unknown origin)

[4] = target: Lysine-specific histone demethylase 1A (Homo sapiens) (UniProt O60341); test: Inhibition of KDM1A in human THP1 cells assessed as increase in CD14 mRNA expression level at 1 uM after 24 hrs by qRT-PCR analysis relative to control; type: cell-based
THP-1 [5] = test: Induction of apoptosis in human THP1 cells at 1 uM after 72 hrs by Annexin V-propidium iodide staining based flow cytometry; type: functional, cell-based
[6] = target: Lysine-specific histone demethylase 1A (Homo sapiens) (UniProt O60341); test: Inhibition of KDM1A in human THP1 cells assessed as increase in CD11b mRNA expression level at 1 uM after 24 hrs by qRT-PCR analysis relative to control; type: cell-based
[7] = target: Lysine-specific histone demethylase 1A (Homo sapiens) (UniProt O60341); test: Inhibition of KDM1A in human THP1 cells assessed as increase in CD86 mRNA expression level at 5 uM after 24 hrs by qRT-PCR analysis relative to control; type: cell-based
THP-1 [8] = test: Anticlonogenic activity against human THP1 cells assessed as inhibition of colony formation at 5 uM after 13 days relative to control; type: functional; conditions: THP-1, 312 h
THP-1 [9] = test: Induction of cell death in human THP1 cells at 1 uM after 72 hrs by propidium iodide staining based flow cytometry; type: functional

Structure (SMILES): Cn1cnc2c1cc(C(=O)Nc1ccccc1)n2C
- IC50 (LSD1/CoREST complex): > 100 µM

Structure (SMILES): Cn1c(C(=O)Nc2cccc(Cl)c2)cc2sccc21
- IC50 (LSD1/CoREST complex): 18.7 µM

Structure (SMILES): Cn1c(C(=O)Nc2ccccc2)cc2sc(Br)cc21
- IC50 (LSD1/CoREST complex): > 100 µM

Structure (SMILES): Cn1c(C(=O)Nc2cccc(C(N)=O)c2)cc2sccc21
- IC50 (LSD1/CoREST complex): 97.3 µM

Structure (SMILES): Cn1c(C(=O)Nc2ccccc2)nc2sccc21
- IC50 (LSD1/CoREST complex): > 100 µM

Structure (SMILES): Cn1c(C(=O)Nc2cccc(Br)c2)cc2sccc21
- IC50 (LSD1/CoREST complex): > 100 µM

Structure (SMILES): Cn1c(C(=O)Nc2ccccc2)c(I)c2sc(I)cc21
- IC50 (LSD1/CoREST complex): > 100 µM

Structure (SMILES): Cn1c(C(=O)Nc2cccc(CO)c2)cc2sccc21
- IC50 (LSD1/CoREST complex): 52.3 µM

Structure (SMILES): O=C(Nc1ccccc1)c1cc2sccc2s1
- IC50 (LSD1/CoREST complex): > 100 µM

Structure (SMILES): CCCn1c(C(=O)Nc2ccccc2)cc2sccc21
- IC50 (LSD1/CoREST complex): 53.2 µM

Structure (SMILES): COCc1c(C(=O)Nc2ccccc2)n(C)c2ccsc12
- IC50 (LSD1/CoREST complex): > 100 µM

Structure (SMILES): Cn1c(C(=O)Nc2cccc(COc3ccccc3)c2)cc2sccc21
- IC50 (LSD1/CoREST complex): > 100 µM

Structure (SMILES): Cn1ccc2c1cc(C(=O)Nc1ccccc1)n2C
- IC50 (LSD1/CoREST complex): > 100 µM

Structure (SMILES): Cn1c(C(=O)Nc2ccccc2)cc2sc(F)cc21
- IC50 (LSD1/CoREST complex): > 100 µM

Structure (SMILES): COCc1cccc(NC(=O)c2cc3sccc3n2C)c1
- IC50 [1]: > 100 µM
- IC50 [2]: 56.8 µM
- IC50 [3]: > 100 µM

Structure (SMILES): O=C(Nc1ccccc1)c1cc2sccc2[nH]1
- IC50 (LSD1/CoREST complex): > 100 µM

Structure (SMILES): Cn1c(C(=O)Nc2ccccn2)cc2sccc21
- IC50 (LSD1/CoREST complex): > 100 µM

Structure (SMILES): CN1CCC(COc2cccc(NC(=O)c3cc4sccc4n3C)c2)CC1
- IC50 (LSD1/CoREST complex): 2.2 µM

Structure (SMILES): Cc1sc2cc(C(=O)Nc3ccccc3)n(C)c2c1C
- IC50 (LSD1/CoREST complex): > 100 µM

Structure (SMILES): Cn1c(C(=O)Nc2cccc(OCc3ccncc3)c2)cc2sccc21
- IC50 (LSD1/CoREST complex): 7.2 µM

Structure (SMILES): Cn1ncc2cc(C(=O)Nc3ccccc3)n(C)c21
- IC50 (LSD1/CoREST complex): > 100 µM

Structure (SMILES): Cn1c(C(=O)Nc2cccc(COc3ccc(OC4CCNCC4)cc3)c2)cc2sccc21
- IC50 [1]: > 100 µM
- fold change (FC) [4]: 4.79
- IC50 [2]: 7.16 µM
- Activity (THP-1 [5]): inactive
- fold change (FC) [6]: 4.61
- IC50 [3]: > 100 µM
- fold change (FC) [7]: 14.3
- inhibition at 5 µM (THP-1 [8]): 29.5%
- Activity (THP-1 [9]): inactive
- IC50 (LSD1/CoREST complex): 0.16 to 0.162 µM

Structure (SMILES): Cn1c(C(=O)Nc2cccnc2)cc2sccc21
- IC50 (LSD1/CoREST complex): 61.5 µM

Structure (SMILES): Cn1c(C(=O)Nc2cccc(Oc3ccncc3)c2)cc2sccc21
- IC50 (LSD1/CoREST complex): 89.9 µM

Structure (SMILES): Cn1c(C(=O)Nc2ccccc2)cc2scnc21
- IC50 (LSD1/CoREST complex): > 100 µM

Structure (SMILES): Cn1c(C(=O)Nc2ccncc2)cc2sccc21
- IC50 (LSD1/CoREST complex): > 100 µM

Structure (SMILES): Cn1c(C(=O)Nc2ccccc2)cc2sc(I)cc21
- IC50 (LSD1/CoREST complex): > 100 µM

Structure (SMILES): Cn1c(C(=O)Nc2cccc(F)c2)cc2sccc21
- IC50 (LSD1/CoREST complex): 22.2 µM

Structure (SMILES): CCn1c(C(=O)Nc2ccccc2)cc2sccc21
- IC50 (LSD1/CoREST complex): 9.3 µM

Structure (SMILES): CN(C)Cc1c(C(=O)Nc2ccccc2)n(C)c2ccsc12
- IC50 (LSD1/CoREST complex): > 100 µM
